Data: PubChem BioAssay (NCI)
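Grown in 96-well plates, cells were treated for 48 hours with each compound at five concentrations. Insufficient inhibition: endpoint recorded as highest concentration tested. GI50 marks 50% less growth. Definition used: TGI = concentration required for complete inhibition of growth.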

What was measured:
Experiment in all cases: growth of human tumour cells (NCI), 48 h
[1] = tested on: CAKI-1 renal
[2] = tested on: TK-10 renal
[3] = tested on: HL-60(TB) leukemia
[4] = tested on: SF-539 CNS
[5] = tested on: UACC-257 melanoma
[6] = tested on: U251 CNS
[7] = tested on: NCI-H460 lung
[8] = tested on: M14 melanoma
[9] = tested on: NCI-H522 lung
[10] = tested on: NCI/ADR-RES ovarian

CN(C)/C=N/c1nc2c(ncn2C2OC(CO)C(O)C2O)c(=O)[nH]1 (stereo not drawn)
TGI [1]: > 100 µM
TGI [2]: > 100 µM
TGI [3]: > 100 µM
TGI [4]: > 100 µM
TGI [5]: > 100 µM
TGI [6]: > 100 µM
TGI [7]: > 100 µM
TGI [8]: > 100 µM

Cn1c2ccccc2c2c3c(c4c5cc(Br)ccc5n(C)c4c21)C(=O)N(O)C3=O
GI50 [2]: 27.7 µM
TGI [2]: > 100 µM
GI50 [4]: 0.0403 µM
TGI [4]: 0.323 µM
GI50 [9]: 0.167 µM
TGI [9]: > 100 µM
GI50 [5]: 0.264 µM
TGI [5]: > 100 µM
GI50 [6]: 0.0499 µM
TGI [6]: 0.489 µM
GI50 [7]: 0.048 µM
TGI [7]: 1.08 µM
GI50 [10]: 0.0926 µM
TGI [10]: > 100 µM

[Cl][Hg][c]1cc(Br)cc(Br)c1
GI50 [2]: 2.9 µM
TGI [2]: 6.35 µM
GI50 [3]: 1.95 µM
TGI [3]: 4.24 µM
GI50 [4]: 1.65 µM
TGI [4]: 3.31 µM
GI50 [9]: 0.493 µM
TGI [9]: 2.27 µM
GI50 [5]: 10 µM
TGI [5]: 21.6 µM
GI50 [6]: 0.441 µM
TGI [6]: 1.67 µM
GI50 [7]: 2.05 µM
TGI [7]: 7.61 µM
GI50 [10]: 3.07 µM
TGI [10]: 13.5 µM
GI50 [8]: 2.12 µM
TGI [8]: 6.32 µM

O=C(CCn1[nH]c(=O)c(Cl)c(Cl)c1=O)NO
TGI [1]: > 100 µM
TGI [2]: > 100 µM
TGI [3]: > 100 µM
TGI [4]: > 100 µM
TGI [9]: > 100 µM
TGI [5]: > 100 µM
TGI [6]: > 100 µM
TGI [7]: > 100 µM
TGI [8]: > 100 µM

O=C(O)CCC(=O)c1ccc[nH]1
TGI [1]: > 100 µM
TGI [2]: > 100 µM
TGI [4]: > 100 µM
TGI [9]: > 100 µM
TGI [5]: > 100 µM
TGI [6]: > 100 µM
TGI [7]: > 100 µM
TGI [10]: > 100 µM
TGI [8]: > 100 µM

COC1(OC)CC2C(=O)N(Cc3ccccc3)C1C(S(=O)(=O)c1ccccc1)C2S(=O)(=O)c1ccccc1 (stereo not drawn)
TGI [1]: 26.9 µM
TGI [2]: 28.5 µM
TGI [3]: 17.3 µM
TGI [4]: 27.3 µM
TGI [9]: 5.12 µM
TGI [5]: 21.1 µM
TGI [6]: 27.2 µM
TGI [7]: 82.7 µM
TGI [8]: 28.5 µM

Cc1cc([N+](=O)[O-])ccc1Nc1cccc(Cl)c1C
TGI [1]: 30.5 µM
TGI [2]: 30 µM
TGI [3]: 41.6 µM
TGI [9]: 31 µM
TGI [5]: 40.4 µM
TGI [6]: 29.8 µM
TGI [8]: 29.1 µM

CC(C)=CCNc1ncnc2c1ncn2C1OC(CO)C(O)C1O (stereo not drawn)
GI50 [1]: 0.721 µM
TGI [1]: 4.74 µM
GI50 [2]: 1.04 µM
TGI [2]: 85.6 µM
GI50 [3]: 0.29 µM
TGI [3]: 0.822 µM
GI50 [4]: 2.22 µM
TGI [4]: 7.65 µM
GI50 [5]: > 792 µM
TGI [5]: > 1000 µM
GI50 [6]: 36.2 µM
TGI [6]: > 1000 µM
GI50 [7]: 4.02 µM
TGI [7]: > 345 µM
GI50 [10]: 1.5 µM
TGI [10]: 52.1 µM
GI50 [8]: 2.85 µM
TGI [8]: > 766 µM

CCCN=C(N)NC#N
TGI [1]: > 100 µM
TGI [2]: > 100 µM
TGI [3]: > 100 µM
TGI [4]: > 100 µM
TGI [9]: > 100 µM
TGI [5]: > 100 µM
TGI [6]: > 100 µM
TGI [7]: > 100 µM
TGI [8]: > 100 µM

CC1=C(C(=O)Nc2ccccc2)C(c2ccccc2)C(C(=O)Nc2ccccc2)=C(C)N1
TGI [1]: > 100 µM
TGI [2]: > 100 µM
TGI [3]: > 100 µM
TGI [4]: > 100 µM
TGI [9]: > 100 µM
TGI [5]: > 100 µM
TGI [6]: > 100 µM
TGI [7]: > 100 µM
TGI [8]: > 100 µM

CC1=NNC(=O)C2CCC(=O)N12 (stereo not drawn)
TGI [1]: > 100 µM
TGI [2]: > 100 µM
TGI [3]: > 100 µM
TGI [4]: > 100 µM
TGI [9]: > 100 µM
TGI [5]: > 100 µM
TGI [6]: > 100 µM
TGI [7]: > 100 µM
TGI [8]: > 100 µM

CCOC(=O)C1(C#N)C(c2ccccc2)CC(O)(c2ccc(OC)cc2)C(C(=O)c2ccc(OC)cc2)C1c1ccccc1 (stereo not drawn)
TGI [1]: > 100 µM
TGI [2]: > 100 µM
TGI [3]: > 100 µM
TGI [9]: > 100 µM
TGI [5]: > 100 µM
TGI [6]: > 100 µM
TGI [7]: > 100 µM
TGI [8]: > 100 µM

O=[N+]([O-])c1ccc(C2=Nn3cnnc3SC2)o1
TGI [2]: > 100 µM
TGI [3]: 37.6 µM
TGI [4]: 36.3 µM
TGI [5]: 29.6 µM
TGI [6]: 30.1 µM
TGI [7]: 26.3 µM
TGI [8]: 32.8 µM

COc1cc(C(Cc2ccccc2)NC(C)=O)oc(=O)c1 (stereo not drawn)
TGI [1]: > 100 µM
TGI [2]: > 100 µM
TGI [3]: > 100 µM
TGI [9]: > 100 µM
TGI [5]: > 100 µM
TGI [6]: > 100 µM
TGI [7]: > 100 µM
TGI [8]: > 100 µM

Cc1cc(CC(O)c2ccc(Cl)c(Cl)c2)nc(=O)[nH]1 (stereo not drawn)
TGI [1]: 90 µM
TGI [2]: > 100 µM
TGI [3]: > 100 µM
TGI [9]: 69.9 µM
TGI [5]: > 100 µM
TGI [6]: > 100 µM
TGI [7]: > 100 µM
TGI [8]: > 100 µM

CCOc1ccccc1C=C1c2ccccc2C(=O)c2ccccc21
TGI [1]: 6.58 µM
TGI [2]: 45.6 µM
TGI [3]: 8.46 µM
TGI [4]: 5.22 µM
TGI [9]: 6.57 µM
TGI [5]: 47 µM
TGI [6]: > 100 µM
TGI [7]: 31.9 µM
TGI [8]: 64.5 µM

COC(=O)C(=Cc1cc(OC)ccc1OC)C(=O)OC
TGI [1]: 43.3 µM
TGI [2]: 97.4 µM
TGI [3]: 59.1 µM
TGI [4]: 65.2 µM
TGI [9]: 34.4 µM
TGI [5]: 35.1 µM
TGI [6]: 42.9 µM
TGI [7]: 91.6 µM
TGI [8]: 36.6 µM

COc1ccc(C(=O)C(c2ccc(OC)cc2)C2(O)C(=O)Nc3ccc([N+](=O)[O-])cc32)cc1 (stereo not drawn)
TGI [1]: > 100 µM
TGI [2]: > 100 µM
TGI [3]: > 100 µM
TGI [4]: 24 µM
TGI [9]: > 100 µM
TGI [5]: > 100 µM
TGI [6]: > 100 µM
TGI [7]: > 100 µM
TGI [8]: > 100 µM

O=c1[nH]c(=O)n(C2OC(CO)C(O)C2O)cc1NN=NCc1ccccc1 (stereo not drawn)
TGI [1]: > 100 µM
TGI [2]: > 100 µM
TGI [3]: > 96.8 µM
TGI [4]: > 100 µM
TGI [9]: > 100 µM
TGI [5]: > 100 µM
TGI [6]: > 100 µM
TGI [7]: > 100 µM
TGI [8]: > 100 µM

COc1cccc(/C=C/c2cc(OC)c(OC)c(OC)c2)c1
TGI [4]: > 100 µM
TGI [9]: > 100 µM
TGI [5]: > 100 µM
TGI [6]: > 100 µM
TGI [7]: > 100 µM
TGI [8]: > 100 µM

CC(=O)Nc1ccc(C(=O)NN2C(=O)CSC2c2ccc([N+](=O)[O-])cc2)cc1 (stereo not drawn)
TGI [2]: > 100 µM
TGI [4]: > 100 µM
TGI [5]: > 100 µM
TGI [6]: > 100 µM
TGI [7]: > 100 µM
TGI [10]: > 100 µM
TGI [8]: > 100 µM

CC(=O)c1cccc(NC(=O)C(=O)NNc2n[nH]c(=S)n2N)c1
TGI [1]: 34.4 µM
TGI [2]: 69.9 µM
TGI [3]: 32.1 µM
TGI [4]: 18.6 µM
TGI [9]: 21 µM
TGI [5]: 9.17 µM
TGI [6]: 12 µM
TGI [7]: 13.3 µM
TGI [8]: 6.15 µM
